# Laboratory results reported in PubChem BioAssay AID2060892 (Molecular Pharmacology Branch, DTP, NCI, 2025).
# System: HOP-62 complex spheroids with HUVEC/MSC, viability
# Test: Anticancer human tumor HOP-62 cell line growth inhibition [RAS];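 further: spheroids exposed to agents for seven days before readout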;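 on viability, T/C: 100% = DMSO vehicle control viability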
# Details: for IC50: curve of first compound; for viability, T/C: stronger effect = lower value
# Method in brief: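 Tumour cells grown as complex spheroids with HUVEC endothelial cells and mesenchymal stem cells, treated with RAS pathway inhibitor combinations. Each agent spans half-log steps from near clinical Cmax, or 10 microM where Cmax is unknown.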
# [1] = second compound 0.00316 µM, first compound 0.00316 µM
# [2] = second compound 0.00316 µM, first compound 0.01 µM
# [3] = second compound 0.00316 µM, first compound 0.0316 µM
# [4] = second compound 0.00316 µM, first compound 0.1 µM
# [5] = second compound 0.01 µM, first compound 0.00316 µM
# [6] = second compound 0.01 µM, first compound 0.01 µM
# [7] = second compound 0.01 µM, first compound 0.0316 µM
# [8] = second compound 0.01 µM, first compound 0.1 µM
# [9] = second compound 0.0316 µM, first compound 0.00316 µM
# [10] = second compound 0.0316 µM, first compound 0.01 µM
# [11] = second compound 0.0316 µM, first compound 0.0316 µM
# [12] = second compound 0.0316 µM, first compound 0.1 µM
# [13] = second compound 0.1 µM, first compound 0.00316 µM
# [14] = second compound 0.1 µM, first compound 0.01 µM
# [15] = second compound 0.1 µM, first compound 0.0316 µM
# [16] = second compound 0.1 µM, first compound 0.1 µM
# [17] = second compound 0.316 µM, first compound 0.00316 µM
# [18] = second compound 0.316 µM, first compound 0.01 µM
# [19] = second compound 0.316 µM, first compound 0.0316 µM
# [20] = second compound 0.316 µM, first compound 0.1 µM
# [21] = second compound 1 µM, first compound 0.00316 µM
# [22] = second compound 1 µM, first compound 0.01 µM
# [23] = second compound 1 µM, first compound 0.0316 µM
# [24] = second compound 1 µM, first compound 0.1 µM
# [25] = second compound 0.00316 µM, first compound 0.316 µM
# [26] = second compound 0.00316 µM, first compound 1 µM
# [27] = second compound 0.01 µM, first compound 0.316 µM
# [28] = second compound 0.01 µM, first compound 1 µM
# [29] = second compound 0.0316 µM, first compound 0.316 µM
# [30] = second compound 0.0316 µM, first compound 1 µM
# [31] = second compound 0.1 µM, first compound 0.316 µM
# [32] = second compound 0.1 µM, first compound 1 µM
# [33] = second compound 0.316 µM, first compound 0.316 µM
# [34] = second compound 0.316 µM, first compound 1 µM
# [35] = second compound 1 µM, first compound 0.316 µM
# [36] = second compound 1 µM, first compound 1 µM
smiles,measurement,setting,value
CC(C)n1nc(-c2ccc3oc(N)nc3c2)c2c(N)ncnc21 + C=CC(=O)N1CCN(c2nc(OCC3CCCN3C)nc3c(F)c(-c4nc(N)cc(C)c4C(F)(F)F)c(Cl)cc23)C(C)C1,IC50,second compound 0.00316 µM,3.91 nM
same,IC50,second compound 0.01 µM,3.62 nM
same,IC50,second compound 0.0316 µM,1.35 nM
same,IC50,second compound 0.1 µM,1.29 nM
same,IC50,second compound 0.316 µM,1.3 nM
same,IC50,second compound 1 µM,1.54 nM
same,"viability, T/C","second compound 0.00316 µM, first compound 0.000316 µM",65.2%
same,"viability, T/C","second compound 0.00316 µM, first compound 0.001 µM",62.2%
same,"viability, T/C",[1],51.7%
same,"viability, T/C",[2],39.5%
same,"viability, T/C",[3],26.7%
same,"viability, T/C",[4],17.2%
same,"viability, T/C","second compound 0.01 µM, first compound 0.000316 µM",63%
same,"viability, T/C","second compound 0.01 µM, first compound 0.001 µM",62.7%
same,"viability, T/C",[5],52.6%
same,"viability, T/C",[6],33%
same,"viability, T/C",[7],27%
same,"viability, T/C",[8],17.2%
same,"viability, T/C","second compound 0.0316 µM, first compound 0.000316 µM",61.4%
same,"viability, T/C","second compound 0.0316 µM, first compound 0.001 µM",51.9%
same,"viability, T/C",[9],43%
same,"viability, T/C",[10],34.4%
same,"viability, T/C",[11],23.9%
same,"viability, T/C",[12],14%
same,"viability, T/C","second compound 0.1 µM, first compound 0.000316 µM",59.5%
same,"viability, T/C","second compound 0.1 µM, first compound 0.001 µM",53.2%
same,"viability, T/C",[13],40.6%
same,"viability, T/C",[14],27%
same,"viability, T/C",[15],20.8%
same,"viability, T/C",[16],14.1%
same,"viability, T/C","second compound 0.316 µM, first compound 0.000316 µM",61.1%
same,"viability, T/C","second compound 0.316 µM, first compound 0.001 µM",49.6%
same,"viability, T/C",[17],45.8%
same,"viability, T/C",[18],25.9%
same,"viability, T/C",[19],22.1%
same,"viability, T/C",[20],12.9%
same,"viability, T/C","second compound 1 µM, first compound 0.000316 µM",64.9%
same,"viability, T/C","second compound 1 µM, first compound 0.001 µM",50.1%
same,"viability, T/C",[21],47.7%
same,"viability, T/C",[22],30.2%
same,"viability, T/C",[23],20.9%
same,"viability, T/C",[24],13.2%
CC(Nc1ccc2c(c1)OCCn1cc(N3C(=O)OCC3C(F)F)nc1-2)C(N)=O (stereo unspecified) + C=CC(=O)N1CCN(c2nc(OCC3CCCN3C)nc3c(F)c(-c4nc(N)cc(C)c4C(F)(F)F)c(Cl)cc23)C(C)C1,IC50,second compound 0.00316 µM,140 nM
same,IC50,second compound 0.01 µM,63.4 nM
same,IC50,second compound 0.0316 µM,< 31.6 nM
same,IC50,second compound 0.1 µM,34.6 nM
same,IC50,second compound 0.316 µM,< 31.6 nM
same,IC50,second compound 1 µM,< 31.6 nM
same,"viability, T/C",[3],57.6%
same,"viability, T/C",[4],53.6%
same,"viability, T/C",[25],44.2%
same,"viability, T/C",[26],35.5%
same,"viability, T/C","second compound 0.00316 µM, first compound 3.16 µM",30.9%
same,"viability, T/C","second compound 0.00316 µM, first compound 10 µM",19.6%
same,"viability, T/C",[7],56.5%
same,"viability, T/C",[8],44.6%
same,"viability, T/C",[27],37.8%
same,"viability, T/C",[28],32.7%
same,"viability, T/C","second compound 0.01 µM, first compound 3.16 µM",27.7%
same,"viability, T/C","second compound 0.01 µM, first compound 10 µM",18.9%
same,"viability, T/C",[11],47.5%
same,"viability, T/C",[12],40.9%
same,"viability, T/C",[29],36.1%
same,"viability, T/C",[30],30.2%
same,"viability, T/C","second compound 0.0316 µM, first compound 3.16 µM",24.5%
same,"viability, T/C","second compound 0.0316 µM, first compound 10 µM",16.5%
same,"viability, T/C",[15],52%
same,"viability, T/C",[16],42%
same,"viability, T/C",[31],39.2%
same,"viability, T/C",[32],32.5%
same,"viability, T/C","second compound 0.1 µM, first compound 3.16 µM",24%
same,"viability, T/C","second compound 0.1 µM, first compound 10 µM",15.7%
same,"viability, T/C",[19],47.4%
same,"viability, T/C",[20],37.4%
same,"viability, T/C",[33],32.9%
same,"viability, T/C",[34],30.6%
same,"viability, T/C","second compound 0.316 µM, first compound 3.16 µM",20.5%
same,"viability, T/C","second compound 0.316 µM, first compound 10 µM",16.8%
same,"viability, T/C",[23],43.6%
same,"viability, T/C",[24],40.8%
same,"viability, T/C",[35],32.2%
same,"viability, T/C",[36],29.6%
same,"viability, T/C","second compound 1 µM, first compound 3.16 µM",24.3%
same,"viability, T/C","second compound 1 µM, first compound 10 µM",13%
O=C(c1ccc(F)c(F)c1Nc1ccc(I)cc1F)N1CC(O)([C@@H]2CCCCN2)C1 + C=CC(=O)N1CCN(c2nc(OCC3CCCN3C)nc3c(F)c(-c4nc(N)cc(C)c4C(F)(F)F)c(Cl)cc23)C(C)C1,IC50,second compound 0.00316 µM,46.5 nM
same,IC50,second compound 0.01 µM,38.3 nM
same,IC50,second compound 0.0316 µM,20 nM
same,IC50,second compound 0.1 µM,22.7 nM
same,IC50,second compound 0.316 µM,14 nM
same,IC50,second compound 1 µM,17.6 nM
same,"viability, T/C",[1],77.1%
same,"viability, T/C",[2],77.8%
same,"viability, T/C",[3],55.2%
same,"viability, T/C",[4],36.5%
same,"viability, T/C",[25],20%
same,"viability, T/C",[26],19.2%
same,"viability, T/C",[5],68.2%
same,"viability, T/C",[6],65.5%
same,"viability, T/C",[7],52.2%
same,"viability, T/C",[8],35.1%
same,"viability, T/C",[27],18.8%
same,"viability, T/C",[28],15%
same,"viability, T/C",[9],68.1%
same,"viability, T/C",[10],60.1%
same,"viability, T/C",[11],42.2%
same,"viability, T/C",[12],30.6%
same,"viability, T/C",[29],15.1%
same,"viability, T/C",[30],13.3%
same,"viability, T/C",[13],64.8%
same,"viability, T/C",[14],54.5%
same,"viability, T/C",[15],49.3%
same,"viability, T/C",[16],27.8%
same,"viability, T/C",[31],15.7%
same,"viability, T/C",[32],10.7%
same,"viability, T/C",[17],57%
same,"viability, T/C",[18],57.2%
same,"viability, T/C",[19],38.7%
same,"viability, T/C",[20],28%
same,"viability, T/C",[33],16.6%
same,"viability, T/C",[34],10.5%
same,"viability, T/C",[21],63.6%
same,"viability, T/C",[22],59.4%
same,"viability, T/C",[23],40.6%
same,"viability, T/C",[24],24.3%
same,"viability, T/C",[35],13.1%
same,"viability, T/C",[36],9.01%
